{"source": "patent US20130024954A1", "about": "“Human Age-Related Neurodegenerative Nematode Model and Methods” (priority 2011, published 2013)", "key": {"neurons VC4 and VC5": {"tested_on": "neurons VC4 and VC5", "experiment": "Degeneration of VC4 and VC5 neurons in single-copy apl-1/huAPP695 overexpression worms treated with drugs (Example 1)", "format": "in vivo, C. elegans", "details": "for APP-induced degeneration of VC4 and VC5 (in words): Example 1, FIG. 19, Table 3; for % degen / Day 1 (degenerated of counted) / Day 3 (degenerated of counted) / Day 5 (degenerated of counted): Dimebon", "text": "Many transgenic strains can be easily obtained from a public consortium (CGC), including those with specific neurons fluorescently labeled in a variety of colors. If not publicly available, these strains can be easily constructed using a PCR fusion approach. Final PCR products contain the GFP gene driven by a specific promoter-of-interest and are then microinjected into the gonad of adult wildtype animals. C. elegans have the ability to form a stable, functional extra-chromosomal array with injected PCR products. Therefore, they express injected DNA. Fluorescent worms are then crossed to the single-copy overexpression worms to generate overexpression worms with different identifiable sets of neurons labeled."}, "VC4 and VC5 neurons": {"tested_on": "VC4 and VC5 neurons", "experiment": "Quantification of percent neurodegeneration of VC4&5 neurons with drug treatment (Example 2)", "format": "in vivo, C. elegans", "details": "for neurodegeneration induced by APP or apl-1 (in words): 50 μM from L4-larval stage onward, FIG. 25A; for degeneration with gain-of-function mutation in egl-1 (in words): SC_APP and SC_apl-1 strains with egl-1 gain-of-function mutation; for degeneration of VC4&5, SC_APPC59 strain (in words): SC_APPC59 strain (intracellular portion of APP); for degeneration of VC4&5, SC_APPC59 strain (in words) / degeneration of VC4&5, SC_APPN636 strain (in words): FIG. 31; for degeneration of VC4&5, SC_APPN636 strain (in words): SC_APPN636 strain (extracellular and transmembrane portion of APP); for degeneration in egl-1 (null) mutant background (in words): egl-1 (null) background, FIG. 25C", "description": "All analyses were completed with the experimenter blind to genotype and drug treatment. Age-synchronized animals were immobilized on 2% agar pads containing 0.7 mM sodium azide. Neurons that had broken/missing axonal projections, dimly-lit somas with missing projections or absent GFP labeling in the appropriate neuronal location were classified as degenerating. Serotonin neurons included NSM, ADF, AIM, RIH, HSN class members. All animals were evaluated within 10 minutes of azide treatment. In cases where the worm strains were too defective in egg laying to reach day 3 or 5 adult stage, animals were treated at L4-larval stage onward with the sterilization drug 5-fluoro-2′-deoxyuridne (0.12 mM final) (Sigma). […] The percentage of VC4 and VC5 neurons that succumbed to APP-induced degeneration was compared for different groups (strain, age, drug condition) using planned non-parametric X^2 analyses.\nDrugs were freshly prepared in buffer (M9) solution and pipetted onto small seeded plates. These plates were allowed to dry at least 2 hours at RT before use. The final drug concentrations of solid media are: Dimebon, 50 μM (Tocris); P7C3, 50 μM. Well-fed larval stage 4 animals were picked onto seeded plates with or without drug. Animals were then allowed to age at 20° C. for ˜20 (day 1 adult), ˜68 (day 3 adult) and ˜116 hours (day 5 adult) before analysis. Controls using buffer with no drug were performed on each strain for each assay, and each assay was repeated multiple (3-8) times. Data were then averaged and statistically compared with planned non-parametric X2 analyses (Zar, 1999)."}, "[1]": {"tested_on": "egg-laying and swimming behaviors", "experiment": "Egg-retention assay and swimming kinematics (behaviors that depend on VC4&5 neurons)", "format": "in vivo, C. elegans", "details": "for egg-laying and swimming behaviors, SC_APPC59 strain (in words): data not shown; for behavioral deficits (swimming and egg laying) with age (in words): drug-treated SC_APP:mCh or SC_apl-1:mCh individuals", "description": "Plates of non-starved adult worms were bleached to yield a synchronized population of eggs. Eggs were allowed to develop for ˜55 hours (day 1 adult) and ˜103 (day 3 adult) hours at 20° C. Animals were then individually dissolved in 1N NaOH, and eggs retained within the dissolved adult animal were counted.\nWorms were submerged in NGM liquid and recorded for 1 minute following a 2-minute acclimation period. Spine analysis software was then used to calculate and plot the midbody angle of the worm as described in Pierce-Shimomura J T, Chen B L, Mun J J, Ho R, Sarkis R, McIntire S L. 2008. Genetic analysis of crawling and swimming locomotory patterns in C. elegans. Proc Natl Acad Sci USA. 105: 20982-7, incorporated by reference. Head-bend frequency was determined based on the average time it took an animal to make 20 complete-cycle head bends."}, "[2]": {"tested_on": "adult-born neurons in the hippocampus", "details": "earlier reports; cited from earlier work"}, "[3]": {"details": "SC_huAPP695 strain, adult day 1"}, "[4]": {"details": "SC_huAPP695 strain, adult day 3"}, "[5]": {"details": "SC_huAPP695 strain, adult day 5"}}}
{"smiles": "CN1CCN2c3ccccc3Cc3ccccc3C2C1", "note": "(stereo not shown) [Mianserin]", "values": [{"measurement": "APP-induced degeneration of VC4 and VC5 (in words)", "setting": "neurons VC4 and VC5", "result": "prevent APP-induced degeneration"}]}
{"smiles": "Cc1ccc2c(c1)c1c(n2CCc2ccc(C)nc2)CCN(C)C1", "note": "[Dimebon]", "values": [{"measurement": "neurodegeneration induced by APP or apl-1 (in words)", "setting": "VC4 and VC5 neurons", "result": "prevented neurodegeneration"}, {"measurement": "degeneration with gain-of-function mutation in egl-1 (in words)", "setting": "VC4 and VC5 neurons", "result": "failed to prevent degeneration"}, {"measurement": "degeneration of VC4&5, SC_APPC59 strain (in words)", "setting": "VC4 and VC5 neurons", "result": "prevented degeneration"}, {"measurement": "degeneration of VC4&5, SC_APPN636 strain (in words)", "setting": "VC4 and VC5 neurons", "result": "failed to provide protection"}, {"measurement": "degeneration in egl-1 (null) mutant background (in words)", "setting": "VC4 and VC5 neurons", "result": "no further protection from degeneration"}, {"measurement": "APP-induced degeneration of VC4 and VC5 (in words)", "setting": "neurons VC4 and VC5", "result": "prevents APP-induced neurodegeneration"}, {"measurement": "% degen", "setting": "neurons VC4 and VC5; SC_apl-1 strain, adult day 1", "result": 8.97, "unit": "%"}, {"measurement": "Day 1 (degenerated of counted)", "setting": "neurons VC4 and VC5; SC_apl-1 strain, adult day 1", "result": "14 of 156"}, {"measurement": "% degen", "setting": "neurons VC4 and VC5; SC_apl-1 strain, adult day 3", "result": 15.88, "unit": "%"}, {"measurement": "Day 3 (degenerated of counted)", "setting": "neurons VC4 and VC5; SC_apl-1 strain, adult day 3", "result": "27 of 170"}, {"measurement": "% degen", "setting": "neurons VC4 and VC5; SC_apl-1 strain, adult day 5", "result": 17.64, "unit": "%"}, {"measurement": "Day 5 (degenerated of counted)", "setting": "neurons VC4 and VC5; SC_apl-1 strain, adult day 5", "result": "12 of 68"}, {"measurement": "% degen", "setting": "neurons VC4 and VC5; [3]", "result": 10.66, "unit": "%"}, {"measurement": "Day 1 (degenerated of counted)", "setting": "neurons VC4 and VC5; [3]", "result": "13 of 122"}, {"measurement": "% degen", "setting": "neurons VC4 and VC5; [4]", "result": 15.45, "unit": "%"}, {"measurement": "Day 3 (degenerated of counted)", "setting": "neurons VC4 and VC5; [4]", "result": "17 of 110"}, {"measurement": "% degen", "setting": "neurons VC4 and VC5; [5]", "result": 16.67, "unit": "%"}, {"measurement": "Day 5 (degenerated of counted)", "setting": "neurons VC4 and VC5; [5]", "result": "13 of 78"}, {"measurement": "% degen", "setting": "neurons VC4 and VC5; Wild-type strain, adult day 1", "result": 4.63, "unit": "%"}, {"measurement": "Day 1 (degenerated of counted)", "setting": "neurons VC4 and VC5; Wild-type strain, adult day 1", "result": "5 of 108"}, {"measurement": "% degen", "setting": "neurons VC4 and VC5; Wild-type strain, adult day 3", "result": 6.45, "unit": "%"}, {"measurement": "Day 3 (degenerated of counted)", "setting": "neurons VC4 and VC5; Wild-type strain, adult day 3", "result": "8 of 124"}, {"measurement": "% degen", "setting": "neurons VC4 and VC5; Wild-type strain, adult day 5", "result": 12.93, "unit": "%"}, {"measurement": "Day 5 (degenerated of counted)", "setting": "neurons VC4 and VC5; Wild-type strain, adult day 5", "result": "15 of 116"}, {"measurement": "egg-laying and swimming behaviors, SC_APPC59 strain (in words)", "setting": "[1]", "result": "protection of egg-laying and swimming behaviors"}, {"measurement": "behavioral deficits (swimming and egg laying) with age (in words)", "setting": "[1]", "result": "without behavioral deficits"}, {"measurement": "adult-born hippocampal neurons (in words)", "setting": "[2]", "result": "promote the survival (prevent death) of adult-born hippocampal neurons"}]}
{"smiles": "O=c1[nH]c(=O)n([C@H]2C[C@H](O)[C@@H](CO)O2)cc1F", "note": "[5-fluoro-2′-deoxyuridne]", "values": [{"measurement": "effect on progression of degeneration of VC neurons (in words)", "setting": "VC4 and VC5 neurons; 0.12 mM final, from L4-larval stage onward (sterilization drug)", "result": "no effect on the progression of degeneration of VC neurons"}, {"measurement": "swimming defect of single-copy APP or apl-1 strains after sterilization (in words)", "setting": "[1]; 0.12 mM final, swimming kinematics", "result": "displayed the same defect"}]}
{"smiles": "OC(CNc1ccccc1)Cn1c2ccc(Br)cc2c2cc(Br)ccc21", "note": "(stereo not shown) [P7C3]", "values": [{"measurement": "neurodegeneration induced by APP or apl-1 (in words)", "setting": "VC4 and VC5 neurons", "result": "significantly prevented neurodegeneration"}, {"measurement": "degeneration with gain-of-function mutation in egl-1 (in words)", "setting": "VC4 and VC5 neurons", "result": "failed to prevent degeneration"}, {"measurement": "degeneration of VC4&5, SC_APPC59 strain (in words)", "setting": "VC4 and VC5 neurons", "result": "prevented degeneration"}, {"measurement": "degeneration of VC4&5, SC_APPN636 strain (in words)", "setting": "VC4 and VC5 neurons", "result": "failed to provide protection"}, {"measurement": "degeneration in egl-1 (null) mutant background (in words)", "setting": "VC4 and VC5 neurons", "result": "no further protection from degeneration"}, {"measurement": "relative potency in dose response analysis", "setting": "VC4 and VC5 neurons; prevention of VC4&5 degeneration, FIG. 25B", "result": "two-orders of magnitude more potent than Dimebon"}, {"measurement": "egg-laying and swimming behaviors, SC_APPC59 strain (in words)", "setting": "[1]", "result": "protection of egg-laying and swimming behaviors"}, {"measurement": "behavioral deficits (swimming and egg laying) with age (in words)", "setting": "[1]", "result": "without behavioral deficits"}, {"measurement": "adult-born hippocampal neurons (in words)", "setting": "[2]", "result": "increase the number of adult-born neurons in the hippocampus of mice"}]}
{"smiles": "CN1CCN2c3ncccc3Cc3ccccc3C2C1", "note": "(stereo not shown) [Mirtazapine]", "values": [{"measurement": "APP-induced degeneration of VC4 and VC5 (in words)", "setting": "neurons VC4 and VC5", "result": "prevent APP-induced degeneration"}]}
